These results are taken from PMC5218480 (PLoS ONE, 2017).

The test system of this experiment is MV-4-11 cells. The experiment is described as follows: Gene expression microarray analysis (Affymetrix PrimeView) and GSEA. The class given is cell-based, human. Also on record: RFU PODN (11730768_x_at) / Fold change /veh PODN (11730768_x_at) / RFU LINC00158 (11744669_a_at) / Fold change /veh LINC00158 (11744669_a_at) / RFU DUSP10 (11751237_a_at) / Fold change /veh DUSP10 (11751237_a_at) / RFU ID3 (11757404_x_at) / Fold change /veh ID3 (11757404_x_at) / RFU PLEKHG5 (11737974_s_at) / Fold change /veh PLEKHG5 (11737974_s_at) / RFU LRRC4B (11730491_at) / Fold change /veh LRRC4B (11730491_at) / RFU GIMAP4 (11747438_a_at) / Fold change /veh GIMAP4 (11747438_a_at) / RFU KRT8 (11758183_x_at) / Fold change /veh KRT8 (11758183_x_at) / RFU CNN1 (11734310_a_at) / Fold change /veh CNN1 (11734310_a_at) / RFU VPS37D (11726825_at) / Fold change /veh VPS37D (11726825_at) / RFU C10orf10 (11716522_x_at) / Fold change /veh C10orf10 (11716522_x_at) / RFU KIR2DL2 /// KIR2DL4 /// KIR2DL5A /// KIR2DL5B /// KIR2DS1 /// KIR2DS2 /// KIR2DS3 /// KIR2DS4 /// KIR3DL3 /// KIR3DL3 /// KIR3DS1 (11738374_at) / Fold change /veh KIR2DL2 /// KIR2DL4 /// KIR2DL5A /// KIR2DL5B /// KIR2DS1 /// KIR2DS2 /// KIR2DS3 /// KIR2DS4 /// KIR3DL3 /// KIR3DL3 /// KIR3DS1 (11738374_at) / RFU C1QL1 (11718748_at) / Fold change /veh C1QL1 (11718748_at) / RFU TMPRSS4 (11747572_a_at) / Fold change /veh TMPRSS4 (11747572_a_at) / RFU HAMP (11756126_x_at) / Fold change /veh HAMP (11756126_x_at) / RFU RNFT2 (11725882_a_at) / Fold change /veh RNFT2 (11725882_a_at) / RFU NR4A2 (11747474_a_at) / Fold change /veh NR4A2 (11747474_a_at) / RFU ABCC12 (11746883_a_at) / Fold change /veh ABCC12 (11746883_a_at) / RFU TMEM136 (11760407_x_at) / Fold change /veh TMEM136 (11760407_x_at) / RFU CLDN22 /// WWC2 (11732394_at) / Fold change /veh CLDN22 /// WWC2 (11732394_at) / RFU HLA-DPB1 (11760878_x_at) / Fold change /veh HLA-DPB1 (11760878_x_at) / RFU SPINT1 (11716480_a_at) / Fold change /veh SPINT1 (11716480_a_at) / RFU GAP43 (11754022_s_at) / Fold change /veh GAP43 (11754022_s_at) / RFU A4GNT (11735810_at) / Fold change /veh A4GNT (11735810_at) / RFU PRB3 (11715151_x_at) / Fold change /veh PRB3 (11715151_x_at) / RFU TUBB4B (11761932_at) / Fold change /veh TUBB4B (11761932_at) / RFU CAPN14 (11732068_a_at) / Fold change /veh CAPN14 (11732068_a_at) / RFU TMCC2 (11721928_a_at) / Fold change /veh TMCC2 (11721928_a_at) / RFU IRGQ (11745062_a_at) / Fold change /veh IRGQ (11745062_a_at) / RFU FAM174B (11720279_a_at) / Fold change /veh FAM174B (11720279_a_at) / RFU TMPRSS4 (11748680_a_at) / Fold change /veh TMPRSS4 (11748680_a_at) / RFU FAM212B (11763350_a_at) / Fold change /veh FAM212B (11763350_a_at) / RFU PLEKHG5 (11743358_a_at) / Fold change /veh PLEKHG5 (11743358_a_at) / RFU ZSCAN30 (11745921_a_at) / Fold change /veh ZSCAN30 (11745921_a_at) / RFU CMKLR1 (11741424_a_at) / Fold change /veh CMKLR1 (11741424_a_at) / RFU LOC101060620 /// MAPK8IP1 (11723275_at) / Fold change /veh LOC101060620 /// MAPK8IP1 (11723275_at) / RFU SPTSSB (11747773_x_at) / Fold change /veh SPTSSB (11747773_x_at) / RFU PRSS12 (11739890_at) / Fold change /veh PRSS12 (11739890_at) / RFU BIN1 (11741810_x_at) / Fold change /veh BIN1 (11741810_x_at) / RFU WNT11 (11732464_a_at) / Fold change /veh WNT11 (11732464_a_at) / RFU C10orf10 (11716521_a_at) / Fold change /veh C10orf10 (11716521_a_at) / RFU C5orf56 (11738089_at) / Fold change /veh C5orf56 (11738089_at) / RFU CYB561 (11721691_x_at) / Fold change /veh CYB561 (11721691_x_at) / RFU ANKRD19P (11752326_a_at) / Fold change /veh ANKRD19P (11752326_a_at) / RFU OR2T12 /// OR2T33 /// OR2T8 (11738714_s_at) / Fold change /veh OR2T12 /// OR2T33 /// OR2T8 (11738714_s_at) / RFU VCAN (11748164_a_at) / Fold change /veh VCAN (11748164_a_at) / RFU JSRP1 (11732532_at) / Fold change /veh JSRP1 (11732532_at) / RFU KRTAP10-11 (11738290_x_at) / Fold change /veh KRTAP10-11 (11738290_x_at) / RFU MYO3A (11730013_a_at) / Fold change /veh MYO3A (11730013_a_at) / RFU EBF3 (11725865_a_at) / Fold change /veh EBF3 (11725865_a_at) / RFU CAMK2N1 (11719241_x_at) / Fold change /veh CAMK2N1 (11719241_x_at) / RFU C5orf56 (11738088_a_at) / Fold change /veh C5orf56 (11738088_a_at) / RFU OLFML3 (11715873_a_at) / Fold change /veh OLFML3 (11715873_a_at) / RFU LOC100653217 /// NTM (11731650_a_at) / Fold change /veh LOC100653217 /// NTM (11731650_a_at) / RFU MAPK11 (11762145_a_at) / Fold change /veh MAPK11 (11762145_a_at) / RFU FIZ1 (11724087_x_at) / Fold change /veh FIZ1 (11724087_x_at) / RFU OASL (11726364_x_at) / Fold change /veh OASL (11726364_x_at) / RFU SOX15 (11748057_x_at) / Fold change /veh SOX15 (11748057_x_at) / RFU CD79A (11719716_a_at) / Fold change /veh CD79A (11719716_a_at) / RFU HIST1H1D (11736915_at) / Fold change /veh HIST1H1D (11736915_at) / RFU CASKIN2 (11723855_a_at) / Fold change /veh CASKIN2 (11723855_a_at) / RFU LOC730098 (11760151_x_at) / Fold change /veh LOC730098 (11760151_x_at) / RFU OR4N2 (11742367_at) / Fold change /veh OR4N2 (11742367_at) / RFU PRRT2 (11749266_a_at) / Fold change /veh PRRT2 (11749266_a_at) / RFU SNX32 (11753110_a_at) / Fold change /veh SNX32 (11753110_a_at) / RFU CDHR5 (11726645_a_at) / Fold change /veh CDHR5 (11726645_a_at) / RFU RCAN1 (11760418_a_at) / Fold change /veh RCAN1 (11760418_a_at) / RFU FAM167A (11723789_a_at) / Fold change /veh FAM167A (11723789_a_at) / RFU FAM26E (11764081_at) / Fold change /veh FAM26E (11764081_at) / RFU ISYNA1 (11749810_s_at) / Fold change /veh ISYNA1 (11749810_s_at) / RFU ACY1 (11761880_at) / Fold change /veh ACY1 (11761880_at) / RFU 11764098_at / Fold change /veh 11764098_at / RFU SAMD14 (11745864_x_at) / Fold change /veh SAMD14 (11745864_x_at) / RFU NPB (11741838_a_at) / Fold change /veh NPB (11741838_a_at) / RFU TMPRSS6 (11731388_a_at) / Fold change /veh TMPRSS6 (11731388_a_at) / RFU KRTAP10-2 (11738614_at) / Fold change /veh KRTAP10-2 (11738614_at) / RFU ARHGAP8 /// PRR5-ARHGAP8 (11727945_x_at) / Fold change /veh ARHGAP8 /// PRR5-ARHGAP8 (11727945_x_at) / RFU KRTAP5-7 /// NADSYN1 (11734609_at) / Fold change /veh KRTAP5-7 /// NADSYN1 (11734609_at) / RFU RASL12 (11751679_a_at) / Fold change /veh RASL12 (11751679_a_at) / RFU CDKN2B (11736163_a_at) / Fold change /veh CDKN2B (11736163_a_at) / RFU PRF1 (11729649_at) / Fold change /veh PRF1 (11729649_at) / RFU, ZNF638 /// ZNF638-IT1 / Fold change vs veh, ZNF638 /// ZNF638-IT1 / RFU, PANK3 / Fold change vs veh, PANK3 / RFU, SH3YL1 / Fold change vs veh, SH3YL1 / RFU, ZEB2 / Fold change vs veh, ZEB2 / RFU, NRIP1 / Fold change vs veh, NRIP1 / RFU, PTTG1IP / Fold change vs veh, PTTG1IP / RFU, CAPN2 / Fold change vs veh, CAPN2 / RFU, MED14 / Fold change vs veh, MED14 / RFU, SNORA58 / Fold change vs veh, SNORA58 / RFU, C1orf63 / Fold change vs veh, C1orf63 / RFU, LRRFIP1 / Fold change vs veh, LRRFIP1 / RFU, NDUFAF7 / Fold change vs veh, NDUFAF7 / RFU, SLC12A2 / Fold change vs veh, SLC12A2 / RFU, IBTK / Fold change vs veh, IBTK / RFU, ESF1 / Fold change vs veh, ESF1 / Fold change vs veh, TMEM50B / RFU, TAOK1 / Fold change vs veh, TAOK1 / RFU, ACBD3 / Fold change vs veh, ACBD3 / RFU, TMA16 / Fold change vs veh, TMA16 / RFU, RWDD3 / Fold change vs veh, RWDD3 / RFU, BCAT1 / Fold change vs veh, BCAT1 / RFU, EDEM3 / Fold change vs veh, EDEM3 / RFU, TMEM33 / Fold change vs veh, TMEM33 / RFU, WDR75 / Fold change vs veh, WDR75 / RFU, AHCTF1 / Fold change vs veh, AHCTF1 / RFU, TFRC / Fold change vs veh, TFRC / RFU, ZDHHC17 / Fold change vs veh, ZDHHC17 / RFU, NOM1 / Fold change vs veh, NOM1 / RFU, ARL8B / Fold change vs veh, ARL8B / RFU, ZBTB11 / Fold change vs veh, ZBTB11 / RFU, TAMM41 / Fold change vs veh, TAMM41 / RFU, KIAA1704 /// LOC100996395 / Fold change vs veh, KIAA1704 /// LOC100996395 / RFU, ING1 / Fold change vs veh, ING1 / RFU, TRMT61B / Fold change vs veh, TRMT61B / RFU, FUBP3 / Fold change vs veh, FUBP3 / RFU, TP53 / Fold change vs veh, TP53 / RFU, TNKS2 / Fold change vs veh, TNKS2 / RFU, ZFP14 / Fold change vs veh, ZFP14 / RFU, ACTR2 / Fold change vs veh, ACTR2 / RFU, PPP3R1 / Fold change vs veh, PPP3R1 / RFU, PIK3R1 / Fold change vs veh, PIK3R1 / RFU, HNRNPA1 / Fold change vs veh, HNRNPA1 / RFU, RNF170 / Fold change vs veh, RNF170 / RFU, ZNF28 / Fold change vs veh, ZNF28 / RFU, RNGTT / Fold change vs veh, RNGTT / RFU, OGT / Fold change vs veh, OGT / RFU, BRD1 / Fold change vs veh, BRD1 / RFU, MARS / Fold change vs veh, MARS / RFU, ZNF655 / Fold change vs veh, ZNF655 / RFU, FAHD1 / Fold change vs veh, FAHD1 / RFU, BDP1 / Fold change vs veh, BDP1 / RFU, LRRCC1 / Fold change vs veh, LRRCC1 / RFU, ARID1A / Fold change vs veh, ARID1A / RFU, ZNF146 / Fold change vs veh, ZNF146 / RFU, ZNF330 / Fold change vs veh, ZNF330 / RFU, GPN3 / Fold change vs veh, GPN3 / RFU, C9orf123 / Fold change vs veh, C9orf123 / RFU, N4BP2L2 / Fold change vs veh, N4BP2L2 / RFU, ARFIP1 / Fold change vs veh, ARFIP1 / RFU, FAM179B / Fold change vs veh, FAM179B / RFU, BCL10 / Fold change vs veh, BCL10 / RFU, UHRF1BP1L / Fold change vs veh, UHRF1BP1L / RFU, BET1 / Fold change vs veh, BET1 / RFU, CNOT2 / Fold change vs veh, CNOT2 / RFU, ZNF268 / Fold change vs veh, ZNF268 / Fold change vs veh, ZNF507 / RFU, DGCR2 / Fold change vs veh, DGCR2 / RFU, WDSUB1 / Fold change vs veh, WDSUB1 / Fold change vs veh, HSP90B1 /// MIR3652 / RFU, ADSS / Fold change vs veh, ADSS / RFU, GK / Fold change vs veh, GK / RFU, ZNF148 / Fold change vs veh, ZNF148 / RFU, TAF9 / Fold change vs veh, TAF9 / RFU, SLC1A5 / Fold change vs veh, SLC1A5 / RFU, SLMO2 / Fold change vs veh, SLMO2 / RFU, ABCC4 / Fold change vs veh, ABCC4 / RFU, LOC101060439 /// RAP1B / Fold change vs veh, LOC101060439 /// RAP1B / RFU, RFX7 / Fold change vs veh, RFX7 / RFU, GTPBP10 / Fold change vs veh, GTPBP10 / RFU, CNEP1R1 / Fold change vs veh, CNEP1R1 / RFU, BIVM-ERCC5 /// ERCC5 / Fold change vs veh, BIVM-ERCC5 /// ERCC5 / RFU, ILF3 / Fold change vs veh, ILF3 / RFU 11762660_at / Fold change /veh 11762660_at / RFU VCAN (11757783_s_at) / Fold change /veh VCAN (11757783_s_at) / RFU DDX43 (11728927_at) / Fold change /veh DDX43 (11728927_at) / RFU KRT8 (11758188_x_at) / Fold change /veh KRT8 (11758188_x_at) / RFU NKD1 (11759106_at) / Fold change /veh NKD1 (11759106_at) / RFU SRD5A1 (11742802_a_at) / Fold change /veh SRD5A1 (11742802_a_at) / RFU TPSAB1 /// TPSB2 (11721975_s_at) / Fold change /veh TPSAB1 /// TPSB2 (11721975_s_at) / RFU GSTM3 (11746129_a_at) / Fold change /veh GSTM3 (11746129_a_at) / RFU IL23R (11737362_x_at) / Fold change /veh IL23R (11737362_x_at) / RFU TMEM51 (11727254_a_at) / Fold change /veh TMEM51 (11727254_a_at) / RFU PIWIL2 (11732686_x_at) / Fold change /veh PIWIL2 (11732686_x_at) / RFU ORM1 (11744905_x_at) / Fold change /veh ORM1 (11744905_x_at) / RFU CCDC152 (11743942_at) / Fold change /veh CCDC152 (11743942_at) / RFU ECM1 (11717891_a_at) / Fold change /veh ECM1 (11717891_a_at) / RFU IL23R (11748794_a_at) / Fold change /veh IL23R (11748794_a_at) / RFU TNFAIP8L3 (11732012_x_at) / Fold change /veh TNFAIP8L3 (11732012_x_at) / RFU MBOAT4 (11741988_at) / Fold change /veh MBOAT4 (11741988_at) / RFU 11764193_at / Fold change /veh 11764193_at / RFU TMEM53 (11763286_at) / Fold change /veh TMEM53 (11763286_at) / RFU MAGEB2 (11727129_at) / Fold change /veh MAGEB2 (11727129_at) / RFU TMEM200A (11744735_a_at) / Fold change /veh TMEM200A (11744735_a_at) / RFU CCDC152 (11751479_a_at) / Fold change /veh CCDC152 (11751479_a_at) / RFU FAM211A (11726209_a_at) / Fold change /veh FAM211A (11726209_a_at) / RFU RGS16 (11746705_a_at) / Fold change /veh RGS16 (11746705_a_at) / RFU VCAN (11755009_s_at) / Fold change /veh VCAN (11755009_s_at) / RFU RHOB (11743442_s_at) / Fold change /veh RHOB (11743442_s_at) / RFU RGS16 (11720943_a_at) / Fold change /veh RGS16 (11720943_a_at) / RFU RGS16 (11720944_at) / Fold change /veh RGS16 (11720944_at) / RFU, VPS4B / Fold change vs veh, VPS4B / RFU, CREB1 / Fold change vs veh, CREB1 / RFU, DNAJC13 / Fold change vs veh, DNAJC13 / RFU, GNAQ / Fold change vs veh, GNAQ / RFU, CDK5R1 / Fold change vs veh, CDK5R1 / RFU, ZRANB3 / Fold change vs veh, ZRANB3 / RFU, CUL4A / Fold change vs veh, CUL4A / RFU, CCNY / Fold change vs veh, CCNY / RFU, UFL1 / Fold change vs veh, UFL1 / RFU, COG3 / Fold change vs veh, COG3 / RFU, DIAPH2 / Fold change vs veh, DIAPH2 / RFU, SKA2 / Fold change vs veh, SKA2 / RFU, AFF3 / Fold change vs veh, AFF3 / RFU, LMF1 / Fold change vs veh, LMF1 / RFU, IPO11 / Fold change vs veh, IPO11 / RFU, DFFB / Fold change vs veh, DFFB / RFU, FOXP1 / Fold change vs veh, FOXP1 / RFU, CARD8 / Fold change vs veh, CARD8 / RFU, STRN3 / Fold change vs veh, STRN3 / RFU, ADK / Fold change vs veh, ADK / RFU, RASSF2 / Fold change vs veh, RASSF2 / RFU, WIPF1 / Fold change vs veh, WIPF1 / RFU, LARP1B / Fold change vs veh, LARP1B / RFU, RASA1 / Fold change vs veh, RASA1 / RFU, RB1 / Fold change vs veh, RB1 / RFU, PPFIA1 / Fold change vs veh, PPFIA1 / RFU, MAT2A / Fold change vs veh, MAT2A / RFU, CCT5 / Fold change vs veh, CCT5 / RFU, WDR92 / Fold change vs veh, WDR92 / RFU, CUX1 / Fold change vs veh, CUX1 / RFU, TTC7A / Fold change vs veh, TTC7A / RFU, TMEM135 / Fold change vs veh, TMEM135 / RFU, DEPTOR / Fold change vs veh, DEPTOR / RFU, CPM / Fold change vs veh, CPM / RFU, DNAJB6 / Fold change vs veh, DNAJB6 / RFU, CACNA2D3 / Fold change vs veh, CACNA2D3 / RFU, DTX4 / Fold change vs veh, DTX4 / RFU, TFCP2 / Fold change vs veh, TFCP2 / RFU, GMCL1 /// GMCL1P1 / Fold change vs veh, GMCL1 /// GMCL1P1 / RFU, AEBP2 / Fold change vs veh, AEBP2 / RFU, SNHG1 /// SNORD22 /// SNORD25 /// SNORD26 /// SNORD27 /// SNORD28 /// SNORD29 /// SNORD31 / Fold change vs veh, SNHG1 /// SNORD22 /// SNORD25 /// SNORD26 /// SNORD27 /// SNORD28 /// SNORD29 /// SNORD31 / Fold change (Aza/veh), C12orf56 (ProbeSet 11735607_a_at) / Fold change (ACY-1035/veh), C12orf56 (ProbeSet 11735607_a_at) / Fold change (Aza/veh), FGFR1OP (ProbeSet 11751329_s_at) / Fold change (ACY-1035/veh), FGFR1OP (ProbeSet 11751329_s_at) / Fold change (Aza/veh), VPS36 (ProbeSet 11739960_a_at) / Fold change (ACY-1035/veh), VPS36 (ProbeSet 11739960_a_at) / RFU SYPL1 (11715823_x_at) / Fold change /veh SYPL1 (11715823_x_at) / RFU IGFBP7 (11715501_s_at) / Fold change /veh IGFBP7 (11715501_s_at) / RFU REEP3 (11722064_at) / Fold change /veh REEP3 (11722064_at) / RFU IGLL1 (11728026_x_at) / Fold change /veh IGLL1 (11728026_x_at): dose or concentration left out as unconfirmed. The settings on record: ProbeSet 11732370_a_at; LIST D.

Regarding `Nc1ncn([C@@H]2O[C@H](CO)[C@@H](O)[C@H]2O)c(=O)n1` [azacitidine], the “RFU, CUX1” value is on record as 199.77 RFU.
